This is an account of results in ChEMBL document CHEMBL1144878, “N-(omega-(4-(2-methoxyphenyl)piperazin-1-yl)alkyl)carboxamides as dopamine D2 and D3 receptor ligands” (J Med Chem, 2003).

The target in one assay is D(2) dopamine receptor (Homo sapiens, UniProt P14416). Briefly: biochemical.
The target in a further assay is D(3) dopamine receptor (Homo sapiens, UniProt P35462). In words: biochemical.
Sequence of D(3) dopamine receptor (P35462 whole entry): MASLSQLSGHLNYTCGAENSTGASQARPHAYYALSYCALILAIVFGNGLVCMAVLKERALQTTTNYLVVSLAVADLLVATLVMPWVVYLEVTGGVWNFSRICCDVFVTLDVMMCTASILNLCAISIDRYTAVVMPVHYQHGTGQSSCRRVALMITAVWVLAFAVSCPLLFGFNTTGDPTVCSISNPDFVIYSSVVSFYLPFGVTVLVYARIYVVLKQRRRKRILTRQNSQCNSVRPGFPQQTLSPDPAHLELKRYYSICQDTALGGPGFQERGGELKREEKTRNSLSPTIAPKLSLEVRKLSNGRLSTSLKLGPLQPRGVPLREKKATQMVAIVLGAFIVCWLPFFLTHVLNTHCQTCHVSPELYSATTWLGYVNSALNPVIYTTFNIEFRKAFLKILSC

Sequence of D(2) dopamine receptor (P14416 whole entry): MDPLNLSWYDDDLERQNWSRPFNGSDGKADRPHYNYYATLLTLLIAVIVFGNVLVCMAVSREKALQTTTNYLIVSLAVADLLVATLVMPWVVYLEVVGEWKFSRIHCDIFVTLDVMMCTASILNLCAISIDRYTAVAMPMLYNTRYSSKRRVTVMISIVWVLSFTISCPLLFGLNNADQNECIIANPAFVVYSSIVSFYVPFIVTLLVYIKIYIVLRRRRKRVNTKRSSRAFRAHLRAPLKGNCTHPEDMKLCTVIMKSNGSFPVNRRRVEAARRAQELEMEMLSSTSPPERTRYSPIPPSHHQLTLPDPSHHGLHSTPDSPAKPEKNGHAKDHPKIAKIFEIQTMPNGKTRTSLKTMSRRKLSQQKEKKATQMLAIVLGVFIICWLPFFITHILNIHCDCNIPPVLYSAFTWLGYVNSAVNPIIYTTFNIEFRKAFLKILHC
Description for D(2) dopamine receptor: Binding affinity for human dopamine receptor D2 by displacing [125I]iodosulpiride expressed in CHO cells
Description for D(3) dopamine receptor: Binding affinity for human dopamine receptor D3 by displacing [125I]iodosulpiride expressed in CHO cells

In general, Ki refers to a measure of affinity in units of concentration, obtained from inhibition or displacement. Read a low Ki as tighter binding. On to `COc1ccccc1N1CCN(CCCN2C(=O)c3ccccc3C2=O)CC1`, for which the inhibition constant (Ki) worked out at 0.3 µM at D(2) dopamine receptor and 0.56 µM at D(3) dopamine receptor. On the same counts, the results for `COc1ccccc1N1CCN(CCCCN2C(=O)c3cccc4cccc(c34)C2=O)CC1` are 0.04 µM and 0.029 µM. On the same counts, the results for `COc1ccccc1N1CCN(CCCCNC(=O)/C=C/c2cccc(Oc3ccccc3)c2)CC1` are 0.114 µM and 0.0195 µM. Turning to `COc1ccccc1N1CCN(C2CC3CC(NC(=O)c4ccc5ccccc5c4)CC3C2)CC1` (stereo not drawn), the Ki is 0.178 µM at D(2) dopamine receptor and 0.0372 µM on D(3) dopamine receptor. On the same counts, the results for `COc1ccccc1N1CCN(CCCCNC(=O)/C=C/c2ccccc2I)CC1` are 0.063 µM and 0.00075 µM. Consider `COc1ccccc1N1CCN(CCCCNC(=O)/C=C/c2ccc(Oc3ccccc3)cc2)CC1`, for which the Ki on D(2) dopamine receptor was found to be 0.0652 µM; at D(3) dopamine receptor, 0.0101 µM. On the same counts, the results for `COc1ccccc1N1CCN(CCCCNC(=O)/C=C/c2ccc(F)cc2)CC1` are 0.0207 µM and 0.00069 µM.

On to `COc1ccc2cc([C@H](C)C(=O)NCCCN3CCN(c4ccccc4OC)CC3)ccc2c1`, for which the Ki is 0.0946 µM on D(2) dopamine receptor and 0.262 µM on D(3) dopamine receptor. In the case of `COc1ccccc1N1CCN(CCCCNC(=O)/C=C/c2cccc(I)c2)CC1`, the inhibitory constant (Ki) on D(2) dopamine receptor turned out to be 0.161 µM; at D(3) dopamine receptor it was 0.0012 µM. On the same counts, the results for `COc1ccccc1N1CCN(CCCCNC(=O)/C=C/c2cc(I)c(OC)c(OC)c2)CC1` are 0.0385 µM and 0.0149 µM. On the same counts, the results for `COc1ccccc1N1CCN(CCCCNC(=O)c2coc3ccccc3c2=O)CC1` are 0.047 µM and 0.0033 µM. `COc1ccccc1N1CCN(CCCCNC(=O)c2ccc(-c3ccccc3)cc2)CC1` returned a Ki on D(3) dopamine receptor of 0.00285 µM.

Consider `COc1ccccc1N1CCN(CCCCNC(=O)/C=C/c2ccc(C(F)(F)F)cc2)CC1`, for which the inhibition constant (Ki) on D(2) dopamine receptor stood at 0.0368 µM; at D(3) dopamine receptor it was 0.00214 µM.

On to `COc1ccccc1N1CCN(Cc2ccccc2CNC(=O)/C=C/c2ccccc2)CC1`, for which the Ki on D(2) dopamine receptor is 0.018 µM; on D(3) dopamine receptor, 0.325 µM. On the same counts, the results for `COc1ccccc1N1CCN(CCCNC(=O)c2cccc(I)c2)CC1` are 0.235 µM and 0.3 µM.

In the case of `COc1ccccc1N1CCN(CCCCNC(=O)c2ccc3ccccc3n2)CC1`, affinity on D(3) dopamine receptor was put at a Ki of 0.0066 µM. On to `COc1ccccc1N1CCN(CCCCNC(=O)/C=C/c2ccc(C#N)cc2)CC1`, for which the Ki at D(2) dopamine receptor stood at 0.01 µM; at D(3) dopamine receptor it was 0.00046 µM.

`COc1ccccc1N1CCN(CCCCNC(=O)c2cc3ccccc3oc2=O)CC1`: the values for the Ki at D(2) dopamine receptor and at D(3) dopamine receptor were 0.023 µM and 0.0018 µM, respectively. On the same counts, the results for `COc1ccccc1N1CCN(Cc2cccc(CNC(=O)c3ccc4ccccc4c3)c2)CC1` are 0.045 µM and 0.1 µM.

Take `COc1ccccc1N1CCN(CCCCNC(=O)/C=C/c2ccc([N+](=O)[O-])cc2)CC1`: the Ki turned out to be 0.014 µM at D(2) dopamine receptor and 0.00074 µM on D(3) dopamine receptor. As to `COc1ccccc1N1CCN(CCCCNC(=O)/C=C/c2ccc(C(C)(C)C)cc2)CC1`, the figures for the Ki on D(2) dopamine receptor and at D(3) dopamine receptor were 0.128 µM and 0.0102 µM, respectively.

Take `COc1ccccc1N1CCN(CCCCNC(=O)/C=C/C=C/c2ccccc2)CC1`: the Ki worked out at 0.019 µM on D(2) dopamine receptor and 0.0015 µM at D(3) dopamine receptor. On the same counts, the results for `COc1ccccc1N1CCN(CCCCN2C(=O)C=C(c3ccccc3)C2=O)CC1` are 0.33 µM and 0.32 µM. On the same counts, the results for `COc1ccccc1N1CCN(CCCCNC(=O)/C=C/c2ccc(I)cc2)CC1` are 0.0764 µM and 0.0005 µM.

Regarding `COc1ccccc1N1CCN(CCCNC(=O)Cc2cccc3ccccc23)CC1`, the figures for the Ki at D(2) dopamine receptor and at D(3) dopamine receptor were 0.044 µM and 0.108 µM, respectively. Take `COc1ccccc1N1CCN(CCCCNC(=O)/C=C/c2ccco2)CC1`: the Ki on D(2) dopamine receptor worked out at 0.0111 µM; at D(3) dopamine receptor, 0.0006 µM. In the case of `COc1ccccc1N1CCN(CCCCNC(=O)/C=C/c2ccc(OCc3ccccc3)cc2)CC1`, the Ki came to 0.032 µM on D(2) dopamine receptor and 0.0195 µM at D(3) dopamine receptor. On the same counts, the results for `COc1ccccc1N1CCN(CCCCNC(=O)/C=C/c2ccc(Br)cc2)CC1` are 0.0237 µM and 0.00043 µM. On the same counts, the results for `COc1ccccc1N1CCN(Cc2ccc(CNC(=O)c3ccc4ccccc4c3)cc2)CC1` are 0.2 µM and 0.04 µM. Take `COc1ccccc1N1CCN(CCCCNC(=O)c2ccccc2I)CC1`: the Ki at D(2) dopamine receptor is 0.0152 µM; on D(3) dopamine receptor it was 0.0078 µM. Take `COc1ccccc1N1CCN(CCCCNC(=O)/C=C/c2cccs2)CC1`: the Ki stood at 0.0095 µM on D(2) dopamine receptor and 0.00059 µM on D(3) dopamine receptor. On the same counts, the results for `COc1ccccc1N1CCN(CCCCNC(=O)/C=C/c2ccc(Cl)c(Cl)c2)CC1` are 0.023 µM and 0.00131 µM.

`COc1ccccc1N1CCN(C2CC3CC(NC4CC5CC(N6CCN(c7ccccc7OC)CC6)CC5C4)CC3C2)CC1` (stereo not drawn): the Ki came out at 0.103 µM on D(2) dopamine receptor and 0.358 µM at D(3) dopamine receptor. On the same counts, the results for `COc1ccccc1N1CCN(C2CC3CC(N4CCN(c5ccccc5OC)CC4)CC3C2)CC1` (stereo not drawn) are 0.63 µM and 0.7 µM. Turning to `COc1ccccc1/C=C/C(=O)NCCCCN1CCN(c2ccccc2OC)CC1`, the Ki was determined as 0.014 µM at D(2) dopamine receptor and 0.00056 µM on D(3) dopamine receptor. On the same counts, the results for `COc1ccccc1N1CCN(CCCCNC(=O)c2ccc(Cl)cc2)CC1` are 0.0195 µM and 0.0005 µM. Regarding `COc1ccccc1N1CCN(CCCCNC(=O)/C=C/c2cccc(C(F)(F)F)c2)CC1`, the inhibitory constant (Ki) on D(2) dopamine receptor came to 0.0502 µM; on D(3) dopamine receptor, 0.0041 µM. On the same counts, the results for `COc1ccccc1N1CCN(CCCCNC(=O)C2CC2c2ccccc2)CC1` (stereo not drawn) are 0.081 µM and 0.0155 µM. On the same counts, the results for `COc1ccccc1N1CCN(CCCCNC(=O)CCc2ccccc2)CC1` are 0.0487 µM and 0.0048 µM. On the same counts, the results for `COc1ccccc1N1CCN(CCCCNC(=O)/C=C/c2cccc3c2OCO3)CC1` are 0.008 µM and 0.00055 µM.

For `COc1ccccc1N1CCN(CCCCNC(=O)/C=C/c2ccccc2Cl)CC1`, the Ki at D(2) dopamine receptor was found to be 0.015 µM; at D(3) dopamine receptor it was 0.00052 µM. Take `COc1ccccc1N1CCN(CCCCNC(=O)/C=C/c2cccnc2)CC1`: the Ki at D(2) dopamine receptor is 0.0145 µM; on D(3) dopamine receptor, 0.0005 µM.

For `COc1ccccc1N1CCN(CCCCNC(=O)/C=C/c2ccccc2)CC1`, the Ki at D(2) dopamine receptor was 0.0135 µM; at D(3) dopamine receptor, 0.00033 µM. On the same counts, the results for `COc1ccccc1N1CCN(CCCCNC(=O)/C=C/c2ccc3c(c2)OCO3)CC1` are 0.0103 µM and 0.001 µM. Turning to `COc1ccccc1N1CCN(CCCCN2C(=O)c3cc4ccccc4cc3C2=O)CC1`, the values for the Ki at D(2) dopamine receptor and at D(3) dopamine receptor were 0.145 µM and 0.0233 µM, respectively.

On to `COc1ccccc1N1CCN(CCCNC(=O)c2ccccc2I)CC1`, for which the Ki at D(2) dopamine receptor is 0.126 µM; at D(3) dopamine receptor, 0.213 µM.

`COc1ccccc1N1CCN(CCCCNC(=O)c2sc3ccccc3c2Cl)CC1`: the Ki at D(2) dopamine receptor turned out to be 0.0719 µM; on D(3) dopamine receptor it was 0.0067 µM. For the compound `COc1ccc(/C=C/C(=O)NCCCCN2CCN(c3ccccc3OC)CC2)cc1`, the Ki on D(2) dopamine receptor was found to be 0.012 µM; on D(3) dopamine receptor, 0.00038 µM.

In the case of `COc1ccccc1N1CCN(CCCCNC(=O)/C=C/c2ccc(/C=C/C(=O)NCCCCN3CCN(c4ccccc4OC)CC3)cc2)CC1`, the Ki at D(2) dopamine receptor amounted to 0.0072 µM; on D(3) dopamine receptor, 0.0036 µM.

With `COc1ccccc1N1CCN(CCCCNC(=O)c2ccc(C(C)(C)C)cc2)CC1`, the Ki on D(2) dopamine receptor was 0.0265 µM; at D(3) dopamine receptor it was 0.00799 µM.
